ChEMBL document CHEMBL1146410, “Bioactive Terpenoids from Octocorallia. 4. Three New Cembrane-Type Diterpenoids from the Soft Coral Lobophytum schoedei” (J Nat Prod, 1997)

Assays:
Format in all cases: organism-based
Oryzias latipes [1] = test: Toxicity in Oryzias latipes; details: in vivo
Oryzias latipes [2] = test: Ichthyotoxicity in Oryzias latipes; details: in vivo
[3] = Toxicity in Artemia salina larvae at 30 ppm; details: in vivo, read-out: Activity

| SMILES | LC50 (Oryzias latipes [1]) [ppm] | LC100 (Oryzias latipes [2]) [ppm] | mortality at 30 ppm [3] [%] |
| --- | --- | --- | --- |
| COC(=O)/C1=C/CC/C(C)=C/[C@@H]2OCC(C)=C2CC[C@@]2(C)O[C@@H]2CC1 [LOBOPHYNIN C] | 22.5 | 30 | – |
| CC(=O)OCC1=C\CC/C(C)=C/CC[C@@]2(C)CC[C@@](C(C)C)(\C=C\1)O2 [LOBOPHYNIN A] | – | – | 20 |
| CC(=O)OCC1=C2CC/C(C)=C/CC[C@@]3(C)O[C@@H]3CC/C(C)=C/[C@H]2OC1 [LOBOPHYNIN B] | – | – | 25 |
